# Measured values as given in patent publication US20220347075A1, “PEPTIDE BASED COSMETIC OR DERMATOLOGICAL TREATMENT OF THE SKIN AND ITS APPENDAGES” (Sederma, priority 2019, published 2022).
# Residues, ends and D or L forms follow the SMILES beside them. *: point of attachment. Palmitoyl = CCCCCCCCCCCCCCCC(=O)*
# What was measured:
# Format in all cases: cell-based
# [1] = tested on: normal human keratinocytes (NHK); assay: Immunocytofluorescence labeling of involucrin, loricrin, filaggrin on NHK culture; conditions: 5 ppm, 7 days, immunofluorescence
# Protocol: Study by Immunocytofluorescence Labeling on KHN Culture
# Principle: confluent NHKs (n=3) are cultured as above for 7 days in the presence or absence (control) of the peptide according to the invention then the cell layers are fixed and labels by immunocytochemistry are carried out using antibodies directed against proteins characteristic of the maturation of the epidermis: involucrine, loricrin and filaggrin. Photos are captured using a fluorescence microscope and images analyzed using appropriate software. The results are compared with those of the control. The number of cells on the mats is evaluated by the Hoechst method (DNA staining), to reduce the fluorescence value to the number of cells. A variance study and a Student's t test are carried to judge the significance of the results.
# 1.1.1. Induction of the formation of involucrin, loricrin and filaggrin in NEM (by immunofluorescence)/effect of 5 ppm of the peptide according to the invention: […]
# [2] = tested on: normal human keratinocytes (NHK); assay: DNA microarray (DNA-Array) gene expression on NHK culture; conditions: 7 ppm
# Protocol: Study Using DNA Microarray Technology (DNA-Array) on NHK Culture
# Principle: the peptide according to the invention (7 ppm) is brought into contact for 24 or 48 hours with confluent NHKs (vs. control case). Then the NHK mats are rinsed, and the cells are crushed to extract their mRNA. These mRNAs are then converted into DNA sequences which are analyzed after depositing on DNA chips and amplification by a method like QRT-PCR. The mRNA variations due to the peptide are compared to the control case (peptide solvent). The results are expressed as an expression ratio between the treated case and the control case. A ratio greater than 1.5 is as an induction of gene expression (+50% compared to the control).
# [3] = tested on: normal human keratinocytes (NHK); assay: LC-MS/MS protein study on NHK culture; conditions: 5 ppm; 7 days; p < 0.01
# Source text: Liquid Chromatography/Mass Spectrometry (LC-MS/MS) Study on NHK Culture
# Principle: the same culture protocol as for the DNA-Array is used but with a longer culture time (7 days) because the protein productions take longer to be able to be detected with this method in LC-MS/MS. The peptide concentration applied to the cells is 5 ppm (vs. control case). The culture medium of the NHK (n=3) is changed every 3 days. At the end of this contact, the cells are lysed for extracting the proteins and to analyze them in the form of ground material by a method combining the action of a protease on the ground material, the separation of the fragments by liquid chromatography coupled with mass spectrometry, and then the identification and concentration of pre-existing proteins according to the nature and quantity of the fragments obtained (LC-MS/MS). To carry out LC-MS/MS analysis on equivalent amounts of proteins, the protein concentration is measured on the ground material. The results are expressed as an expression ratio between the treated case and the control case. A ratio greater than 1.5 is considered as an increase in protein production (+50% compared to the control). A study of variances and a Student's t test is carried out for judging the significance of the results.
# [4] = tested on: normal human keratinocytes (NHK); assay: Molecular biology study (qRT-PCR) on NHK culture; conditions: 5 ppm, 24 hours, RT-PCR
# Protocol: Molecular Biology Study on NHK Culture
# Principle: in this test, confluent keratinocytes are brought into contact with the peptide according to the invention for 24 hours. The cells are then frozen to dryness and their RNAs are extracted, converted into DNA, then analyzed by qRT-PCR (“Quantitative real time reverse transcription polymerase chain reaction”). The results are expressed as an expression ratio between the treated case and the control case. A ratio greater than 1.5 is as an induction of gene expression (+50% compared to the control). A study of variances and a Student's t test are carried out for judging the significance of the results (n=4 for each condition).
# Propionibacterium acnes = Propionibacterium acnes growth inhibition test (OD 600 nm); conditions: for Time necessary to reach an OD of 1 (P. acnes growth): control 28 hours, anaerobic, 37° C.
# Protocol: Propionibacterium acnes Growth Inhibition Test Principle: suspensions of Propionibacterium acnes of equivalent density are cultured in a suitable medium in the presence (test case) or absence (control case) of the peptide according to the invention, in anaerobic condition, at 37° C. Samples are taken at regular intervals to measure the OD at 600 nm for following the growth of the bacterial population over time. The growth curve of each culture is thus established. Growth of the bacterium Propionibacterium acnes: time necessary to reach an OD of 1 in the control case and in the presence of the peptide according to the invention (N=2 independent experiments; n=2 cultures per case): […]
# [5] = tested on: normal human keratinocytes (NHK) exposed to UVB; assay: Immunoenzymatic assay (ELISA) of pro-inflammatory mediators of NHK exposed to UVB
# Protocol: Study by Immune Enzymatic Assay on NHK Culture
# Principle: NHKs in culture and at confluence are brought into contact with the peptide according to the invention (or its solvent) for 24 hours in a medium allowing their survival. Then the cell layers are irradiated with UVB in a physiological buffer and again brought into contact with the products to be tested for 24 hours. At the end of this incubation, the culture media are assayed by ELISA to know the amounts of pro-inflammatory mediators produced by these cells in response to irradiation. The results are compared to the control. A cell respiration test is conducted on the fixed mat to assess the number of cells and standardize the results. A study of variances and a Student's t test are carried out for judging the significance of the results.
# To test the active ingredients, keratinocytes were placed in culture under light stress conditions (application of UVB radiation) to mimic an experimental skin micro-inflammation. In this situation, a significant decrease in their secretome of inflammation mediators will be interpreted in the sense of a restorative and protective action of the skin.
# Variation compared to the control of the secretome of pro-inflammatory mediators by NHKs exposed to UVB (by immunoenzymatic assay)/effect of the peptide according to the invention at 4, 6 and 8 ppm: […]
compound,measurement,setting,value
"CCCCCCCCCCCCCCCC(=O)N[C@@H](CCCCN)C(=O)N[C@H](C(=O)N[C@H](C(=O)N[C@@H](CCCCN)C(=O)N[C@@H](CO)C(=O)O)[C@@H](C)O)[C@@H](C)O [Pal-KTTKS, palmitoyl-lysyl-threonyl-threonyl-lysyl-serine] (Palmitoyl-KTTKS-OH)",Filaggrin: % of variation/control,[1]; p < 0.01,+310%; p < 0.01
same,Loricrin: % of variation/control,[1]; p < 0.01,+128%; p < 0.01
same,Involucrin: % of variation/control,[1]; p < 0.05,+1057%; p < 0.05
same,"ABHD5 gene expression, variation vs control",[2]; 24 h contact,×2.10
same,"ADGRG1 gene expression, variation vs control",[2]; 24 h contact,×1.92
same,"ALOX12B gene expression, variation vs control",[2]; 24 h contact,×2.48
same,"ALOXE3 gene expression, variation vs control",[2]; 24 h contact,×2.92
same,"ASPRV1 gene expression, variation vs control",[2]; 24 h contact,×3.35
same,"BMP2 gene expression, variation vs control",[2]; 24 h contact,×3.63
same,"BMP6 gene expression, variation vs control",[2]; 24 h contact,×13
same,"ELOVL4 gene expression, variation vs control",[2]; 24 h contact,×5.41
same,"FN1 gene expression, variation vs control",[2]; 24 h contact,×3.38
same,"GSK3B (glycogen synthase kinase 3 beta) gene expression, variation vs control",[2]; 24 h contact,×1.64
same,"GSKA (glycogene synthase kinase 3 alpha) gene expression, variation vs control",[2]; 24 h contact,×1.57
same,"IL37 gene expression, variation vs control",[2]; 24 h contact,×3.60
same,"LCE2C gene expression, variation vs control",[2]; 24 h contact,×26.30
same,"LCE3A gene expression, variation vs control",[2]; 24 h contact,×65.26
same,"LCE3B gene expression, variation vs control",[2]; 24 h contact,×123.00
same,"LCE3D gene expression, variation vs control",[2]; 24 h contact,×110.46
same,"LCE3E gene expression, variation vs control",[2]; 24 h contact,×135.99
same,"LOR gene expression, variation vs control",[2]; 24 h contact,×1.86
same,"PPARD gene expression, variation vs control",[2]; 24 h contact,×1.97
same,"PRSS8 gene expression, variation vs control",[2]; 24 h contact,×3.72
same,"SPRR2A gene expression, variation vs control",[2]; 24 h contact,×8.71
same,"SPRR2B gene expression, variation vs control",[2]; 24 h contact,×58.44
same,"SPRR2C gene expression, variation vs control",[2]; 24 h contact,×6.30
same,"SPRR2D gene expression, variation vs control",[2]; 24 h contact,×7.87
same,"SPRR2E gene expression, variation vs control",[2]; 24 h contact,×6.47
same,"SPRR2F gene expression, variation vs control",[2]; 24 h contact,×6.00
same,"SPRR2G gene expression, variation vs control",[2]; 24 h contact,×13.43
same,"SPRR3 gene expression, variation vs control",[2]; 24 h contact,×1.90
same,"SPRR4 gene expression, variation vs control",[2]; 24 h contact,×2.95
same,"TGM1 gene expression, variation vs control",[2]; 24 h contact,×1.70
same,"CDSN gene expression, variation vs control",[2]; 24 hours of contact,×3.36
same,"CGNL1 gene expression, variation vs control",[2]; 24 hours of contact,×3.37
same,"CLDN4 gene expression, variation vs control",[2]; 24 hours of contact,×5.16
same,"CLDN7 gene expression, variation vs control",[2]; 24 hours of contact,×4.47
same,"CLDN12 gene expression, variation vs control",[2]; 24 hours of contact,×2.68
same,"CLDN15 gene expression, variation vs control",[2]; 24 hours of contact,×4.80
same,"CLDN17 gene expression, variation vs control",[2]; 24 hours of contact,×113.20
same,"CLDN23 gene expression, variation vs control",[2]; 24 hours of contact,×3.69
same,"KLK14 gene expression, variation vs control",[2]; 24 hours of contact,×1.79
same,"OCLN gene expression, variation vs control",[2]; 24 hours of contact,×5.91
same,"TJP1 gene expression, variation vs control",[2]; 24 hours of contact,×2.15
same,"CERS1 gene expression, variation vs control",[2]; 48 h contact,×3.48
same,"CRNN gene expression, variation vs control",[2]; 48 h contact,×4.73
same,"TCHH gene expression, variation vs control",[2]; 48 h contact,×4.87
same,"SOD2 gene expression, variation vs control",[2]; 48 hours contact,×2.93
same,"ADGRG1 protein, variation vs control",[3],×1.63;
same,"ASPRV1 protein, variation vs control",[3],×2.35; p < 0.01
same,"CALM5 protein, variation vs control",[3],×1.61; p < 0.01
same,"CRYAB (alpha-crystallin B) protein, variation vs control",[3],×2.24; p < 0.01
same,"FLG (filaggrin) protein, variation vs control",[3],×2.66; p < 0.01
same,"KRT1 protein, variation vs control",[3],×1.58; p < 0.01
same,"KRT6B protein, variation vs control",[3],×2.07; p < 0.01
same,"KRT9 protein, variation vs control",[3],×1.54; p < 0.01
same,"KRT10 protein, variation vs control",[3],×1.75; p < 0.01
same,"KRT15 protein, variation vs control",[3],×2.02; p < 0.01
same,"LOR (loricrin) protein, variation vs control",[3],×2.92; p < 0.01
same,"SPINK5 protein, variation vs control",[3],×1.58; p < 0.01
same,"TCHH (trichohyalin) protein, variation vs control",[3],×1.54; p < 0.01
same,"THBS1 protein, variation vs control",[3],×1.98;
same,"CRYAB (alpha-crystallin B) gene expression, variation vs control",[4]; p < 0.01,×3.47; p < 0.01
same,"Involucrine gene expression, variation vs control",[4]; p < 0.01,×1.64; p < 0.01
same,"Transglutaminase 1 gene expression, variation vs control",[4]; p < 0.05,×1.82; p < 0.05
same,Time necessary to reach an OD of 1 (P. acnes growth),Propionibacterium acnes; 6 ppm of peptide,42 h
same,Growth of Propionibacterium acnes (result in words),Propionibacterium acnes; 6 to 12 ppm,strongly and dose-dependently inhibits the growth
same,Time necessary to reach an OD of 1 (P. acnes growth),Propionibacterium acnes; 9 ppm of peptide,54 h
same,Time necessary to reach an OD of 1 (P. acnes growth),Propionibacterium acnes; 12 ppm of peptide,85.5 h
same,"IL6 secretion, variation vs control","[5]; 4 ppm, ns",−13%
same,"PGE2 secretion, variation vs control","[5]; 4 ppm, p < 0.01",−41%
same,"IL6 secretion, variation vs control","[5]; 6 ppm, p < 0.01",−68% (p < 0.01)
same,"PGE2 secretion, variation vs control","[5]; 6 ppm, p < 0.01",−69% (p < 0.01)
same,"IL6 secretion, variation vs control","[5]; 8 ppm, p < 0.01",−84% (p < 0.01)
same,"PGE2 secretion, variation vs control","[5]; 8 ppm, p < 0.01",−84% (p < 0.01)
